According to patent US7947830B2, “Substituted propenyl piperazine derivatives as novel inhibitors of histone deacetylase” (Janssen Pharmaceutica N.V., priority 2004, dated 2011):
Converted amounts (≈) assume the structure as drawn.

Key:
[1] = target: histone deacetylase (HeLa nuclear extracts); experiment: In vitro assay for inhibition of histone deacetylase (HDAC Fluorescent Activity Assay, Fluor de Lys); format: biochemical; settings: Fluor de Lys substrate
Description: The in vitro assay for inhibition of histone deacetylase (see example C.1) measures the inhibition of HDAC enzymatic activity obtained with the compounds of formula (I).
The HDAC Fluorescent Activity Assay/Drug Discovery Kit of Biomol (cat.No: AK-500-0001) was used. The HDAC Fluorescent Activity Assay is based on the Fluor de Lys (Fluorogenic […] deAcetylase Lysyl) substrate and developer combination. The Fluor de Lys substrate, comprises an acetylated lysine side chain. Deacetylation of the substrate sensitizes the substrate so that, in the second step, treatment with the Fluor de Lys developer produces a fluorophore.
After 30 min, 1 volume of the developer was added. […] For each experiment, controls (containing HeLa nuclear extract and buffer), a blank incubation (containing buffer but no HeLa nuclear extract) and samples (containing compound dissolved in DMSO and further diluted in buffer and HeLa nuclear extract) were run in parallel. […] All sample were tested 4 times. In each test the blank value was substracted from both the control and the sample values. The control sample represented 100% of substrate deactylation. For each sample the fluorescence was expressed as a percentage of the mean value of the controls. […] Herein the effects of test compounds are expressed as pIC50 (the negative log value of the IC50-value) (see Table F-3).

[2] = system: A2780 ovarian carcinoma cells; experiment: Antiproliferative activity on A2780 cells (MTT); format: cell-based, human; settings: four days of incubation; for IC50: Homo sapiens, A2780, 96 h, read-out: Cellular activity pIC50 C.2. (converted)
Procedure: Cellular activity of the compounds of formula (I) was determined on A2780 tumour cells using a […] assay for cell toxicity or survival (Mosmann Tim, Journal of Immunological Methods 65: 55-63, 1983)(see example C.2).
All compounds tested were dissolved in DMSO and further dilutions were made in culture medium. Final DMSO concentrations never exceeded 0.1% (v/v) in cell proliferation assays. Controls contained A2780 cells and DMSO without compound and blanks contained DMSO but no cells. MTT was dissolved at 5 mg/ml in PBS. A glycine buffer comprised of 0.1 M glycine and 0.1 M NaCl buffered to pH 10.5 with NaOH (1 N) was prepared (all reagents were from Merck).
The human A2780 ovarian carcinoma cells (a kind gift from Dr. T. C. Hamilton [Fox Chase Cancer Centre, Pennsylvania, USA]) were cultured in RPMI 1640 medium supplemented with 2 mM L-glutamine, 50 μg/ml gentamicin and 10% fetal calf serum.
Cells were routinely kept as monolayer cultures at 37° C. in a humidified 5% CO2 atmosphere. Cells were passaged once a week using a trypsin/EDTA solution at a split ratio of 1:40. All media and supplements were obtained from Life Technologies. Cells were free of mycoplasma contamination as determined using the Gen-Probe Mycoplasma Tissue Culture kit (supplier: BioMérieux).
Cells were seeded in NUNC™ 96-well culture plates (Supplier: Life Technologies) and allowed to adhere to the plastic overnight. Densities used for plating were 1500 cells per well in a total volume of 200 μl medium. After cell adhesion to the plates, medium was changed and drugs and/or solvents were added to a final volume of 200 μl. Following four days of incubation, medium was replaced by 200 μl fresh medium and cell density and viability was assessed using an MTT-based assay. To each well, 25 μl […] solution was added and the cells were further incubated for 2 hours at 37° C. The medium was then carefully aspirated and the blue MTT-formazan product was solubilized by addition of 25 μl glycine buffer followed by 100 μl of DMSO. […] Within an experiment, the results for each experimental condition are the mean of 3 replicate wells. For initial screening purposes, compounds were tested at a single fixed concentration of 10^−6 M. For active compounds, the experiments were repeated to establish full concentration-response curves. For each experiment, controls (containing no drug) and a blank incubation (containing no cells or drugs) were run in parallel. The blank value was subtracted from all control and sample values. For each sample, the mean value for cell growth (in absorbance units) was expressed as a percentage of the mean value for cell growth of the control. […] Herein the effects of test compounds are expressed as pIC50 (the negative log value of the IC50-value)(see Table F-3).

[3] = Solubility at different pH's, chemiluminescent nitrogen detector (C.3.b); format: physicochemical; settings: pH 2.3, aqueous buffer, read-out: Solubility C.3.b. pH = 2.3 mg/ml
Description: In a second method the solubility of a compound at different pH's can be measured with the use of a chemiluminescent nitrogen detector (see example C.3.b).
The solubility of a compound, at different pH's, can also be measured with the use of a cherniluminescent nitrogen detector (see Table F-3).

[4] = Kinetic solubility in aqueous media (nephelometer, C.3.a); format: physicochemical; settings: aqueous buffer, kinetic from dmso stock; score; phosphate citrate buffer pH 7.4, turbidity
Procedure: The solubility of a compound measures the ability of a compound to stay in solution. In a first method the ability of a compound to stay in aqueous solution upon dilution (see example C.3.a) is measured. DMSO-stock solutions are diluted with a single aqueous buffer solvent in 3 consecutive steps. For every dilution turbidity is measured with a nephelometer.
In the first dilution step, 10 μl of a concentrated stock-solution of the active compound, solubilized in DMSO (5 mM), was added to 100 μl phosphate citrate buffer pH 7.4 and mixed. In the second dilution step, an aliquot (20 μl) of the first dilution step was further dispensed in 100 μl phosphate citrate buffer pH 7.4 and mixed. Finally, in the third dilution step, a sample (20 μl) of the second dilution step was further diluted in 100 μl phosphate citrate buffer pH 7.4 and mixed. All dilutions were performed in 96-well plates. Immediately after the last dilution step the turbidity of the three consecutive dilution steps were measured with a nephelometer. Dilution was done in triplicate for each compound to exclude occasional errors. Based on the turbidity measurements a ranking is performed into 3 classes. Compounds with high solubility obtained a score of 3 and for this compounds the first dilution is clear. Compounds with medium solubility obtained a score of 2. For these compounds the first dilution is unclear and the second dilution is clear.

## COCC(/C=C/c1ccccc1)N1CCN(c2ncc(C(=O)NO)cn2)CC1 (stereo not drawn) [Compound 11]
[1]
  Enzymatic activity pIC50 C.1.: 9.4
[2]
  IC50: 10 nM
[3]
  solubility: 3100 µg/mL (≈ 8.08 mM)
other
  melting point: 212 °C

## Cc1ccc(/C=C/C(CO)N2CCN(c3ncc(C(=O)NO)cn3)CC2)cc1 (stereo not drawn) [Compound 12]
[1]
  Enzymatic activity pIC50 C.1.: 9.0
[2]
  IC50: 31.6 nM
[3]
  solubility: 2100 µg/mL (≈ 5.48 mM)

## CC(/C=C/c1ccccc1)(C(=O)N1CCOCC1)N1CCN(c2ncc(C(=O)NO)cn2)CC1 (stereo not drawn) [Compound 13]
[1]
  Enzymatic activity pIC50 C.1.: 8.8
[2]
  IC50: 100 nM
[3]
  solubility: 3700 µg/mL (≈ 7.93 mM)

## CCN(C)C(=O)C(C)(/C=C/c1ccc(F)cc1)N1CCN(c2ncc(C(=O)NO)cn2)CC1 (stereo not drawn) [Compound 14]
[1]
  Enzymatic activity pIC50 C.1.: 8.5
[2]
  IC50: 39.8 nM
[3]
  solubility: 2800 µg/mL (≈ 6.13 mM)

## O=C(NO)c1cnc(N2CCN(C(/C=C/c3ccccc3)C(=O)NC3CC3)CC2)nc1 (stereo not drawn) [Compound 15]
[1]
  Enzymatic activity pIC50 C.1.: 7.6
[2]
  IC50: 100 nM
[4]
  solubility: > 455 µM

## CNC(=O)C(/C=C/c1ccccc1)N1CCN(c2ncc(C(=O)NO)cn2)CC1 (stereo not drawn) [Compound 16]
[1]
  Enzymatic activity pIC50 C.1.: 7.4
[2]
  IC50: 79.4 nM
[3]
  solubility: 2800 µg/mL (≈ 7.06 mM)

## O=C(NO)c1cnc(N2CCN(C(/C=C/c3ccccc3)C(=O)N3CCOCC3)CC2)nc1 (stereo not drawn) [Compound 17]
[1]
  Enzymatic activity pIC50 C.1.: 8.8
[2]
  IC50: 200 nM
[3]
  solubility: 2200 µg/mL (≈ 4.86 mM)

## CN(C)CCNC(=O)C(/C=C/c1ccccc1)N1CCN(c2ncc(C(=O)NO)cn2)CC1 (stereo not drawn) [Compound 18]
[1]
  Enzymatic activity pIC50 C.1.: 8.5
[2]
  IC50: 100 nM
[3]
  solubility: 3600 µg/mL (≈ 7.94 mM)

## O=C(NO)c1cnc(N2CCN(C(/C=C/c3ccccc3)C(=O)NCCO)CC2)nc1 (stereo not drawn) [Compound 19]
[1]
  Enzymatic activity pIC50 C.1.: 8.4
[2]
  IC50: 501 nM
[3]
  solubility: 2600 µg/mL (≈ 6.1 mM)

## CCCCN(C)C(=O)C(C)(/C=C/c1ccc(F)cc1)N1CCN(c2ncc(C(=O)NO)cn2)CC1 (stereo not drawn) [Compound 20]
[1]
  Enzymatic activity pIC50 C.1.: 7.7
[2]
  IC50: 50.1 nM

## O=C(NO)c1cnc(N2CCN(C(/C=C/c3ccccc3)CN3CCOCC3)CC2)nc1 (stereo not drawn) [Compound 21]
[1]
  Enzymatic activity pIC50 C.1.: 7.9
[2]
  IC50: 158 nM
[3]
  solubility: 2100 µg/mL (≈ 4.79 mM)

## CN1CCN(CC(/C=C/c2ccccc2)N2CCN(c3ncc(C(=O)NO)cn3)CC2)CC1 (stereo not drawn) [Compound 22]
[1]
  Enzymatic activity pIC50 C.1.: 7.9
[2]
  IC50: 158 nM
[3]
  solubility: 4200 µg/mL (≈ 9.3 mM)

## O=C(NO)c1cnc(N2CCN(C(/C=C/c3ccccc3)Cn3ccnc3)CC2)nc1 (stereo not drawn) [Compound 23]
[1]
  Enzymatic activity pIC50 C.1.: 8.0
[2]
  IC50: 251 nM

## CCOCC(/C=C/c1ccccc1)N1CCN(c2ncc(C(=O)NO)cn2)CC1 (stereo not drawn) [Compound 24]
[1]
  Enzymatic activity pIC50 C.1.: 8.8
[2]
  IC50: 31.6 nM
[3]
  solubility: 4000 µg/mL (≈ 10.1 mM)

## O=C(NO)c1ccc(N2CCN(C(/C=C/c3ccc(F)cc3)CO)CC2)nc1 (stereo not drawn) [Compound 31]
[1]
  Enzymatic activity pIC50 C.1.: 8.5
[2]
  IC50: 39.8 nM
other
  melting point: 145 °C

## COCC(/C=C/c1ccc(F)cc1)N1CCN(c2ncc(C(=O)NO)cn2)CC1 (stereo not drawn) [Compound 32]
[1]
  Enzymatic activity pIC50 C.1.: >9
[2]
  IC50: < 31.6 nM

## CC(/C=C/c1ccccc1)N1CCN(c2ncc(C(=O)NO)cn2)CC1 (stereo not drawn) [Compound 35]
[1]
  Enzymatic activity pIC50 C.1.: 9.6
[2]
  Cellular activity pIC50 C.2.: 7.8
